The values below come from patent US20250066737A1, “METHOD FOR ESTABLISHING LUNG CANCER CELL MODEL HAVING VASCULAR TUBES, PLATFORM FOR LUNG CANCER MEDICINE SCREENING AND METHOD FOR USING THEREOF” (National Cheng Kung University Hospital, priority 2023, published 2025).

Data set [1] has as its system H1299-EGFRmt cell model. In words: Cell viability, H1299-EGFRmt cell model. It is filed as cell-based. Here is the method:
(§1) Cell viability was determined using an MTT assay.

The next data set has as its system phosphorylated EGFR. The settings on record: Western blot, H1299, H1299-EGFRwt, H1299-EGFRmt cell models. Background: Immunoblotting shows a protein as a band on a membrane.
The test system of data set [2] is H1299-EGFRwt cell model. Conditions: osimertinib.
Procedure: Cell viability was determined using an MTT assay. Cells were plated at a density of 4×10^3 cells/well within 96-well plates. These cells were then exposed to various concentrations of anti-vasculogenic mimicry (anti-VM) compounds across different time points: 0, 24, 48, and 72 hours. Following the treatment period, the MTT reagent (sourced from Sigma) was added to each well, and the cells were incubated at 37° C. for 2 hours. Subsequently, the plates were centrifuged at 1500 rpm for 10 minutes to facilitate the removal of the supernatant. The resultant formazan crystals were dissolved using dimethyl sulfoxide (DMSO), and the absorbance of the solution, indicative of cell viability, was measured at a wavelength of 492 nm using an ELISA plate reader.
Data set [3] has as its system H1299-EGFRwt and H1299-EGFRmt cell models. In words: 3D-VM vasculature under single use of osimertinib (cell model not given). It is filed as cell-based. Here is the method: (§2) The assessment of in vitro vasculogenic mimicry (VM) capabilities of cancer cells was conducted utilizing the Matrigel tube formation assay. Chamber slides (TruLive3D Dishes, Burker) were prepared by applying a 100 μl layer of growth factor-reduced Matrigel (Corning) and subsequently allowing for gel solidification over a 30-minute period at 37° C. […] This preparation was then incubated for an additional 30 minutes at 37° C. within a CO2 incubator. […]
(§3) The quantification of tube or lumen formation of 3D-VM vasculature was conducted utilizing an analytical approach on at least eight distinct areas of interest (AOIs), among which three AOIs were specified as representative sections of images. […] First, the AOI was identified and quantified. Following this, the mean ROI was calculated by aggregating the ROIs for all eight AOIs (area 1+ area 2+ . . . area 8) and dividing this sum by eight, thereby deriving an average area that reflects the typical dimensions of the regions analyzed in each individual lung cancer cell model. […]
(§4) The entire quantification process was facilitated by employing the Angiogenesis Analyzer for ImageJ.

Data set [4] has as its system H1299 cell model. In words: 2D-VM networks inhibition assay via high-content imaging, H1299. The class given is cell-based. Conditions: H1299, compared with H1299-EGFRmt cell model. On the procedure: (§5) Cells to be tested were plated in 96-well plates (manufactured by Greiner) and allowed to adhere overnight under standard culture conditions. Following attachment, the cells to be tested were exposed to various concentrations of anti-VM compound foslinanib (ABEx BIO-Research Center). The treatment's efficacy, specifically its ability to inhibit VM vasculature, was monitored time-dependent. The assessment of 2D-VM network disruption was conducted using the ImageXpressR Micro Confocal High-Content Imaging System (Molecular Devices LLC). This advanced imaging technology facilitates high-resolution visualization of cell morphology and tubular networks. Analysis of the imaging data was performed using MetaXpress software, allowing for quantitative measurement of 2D-VM network inhibition. This methodological approach provides a robust framework for evaluating the potential of anti-VM compounds.

The subject of the next data set is LAMC2. In words: Western blot, LAMC2 in H1299, H1299-EGFRwt and H1299-EGFRmt cell models. Conditions: across the examined cell lines. It is filed as cell-based.
Data set [5] relates to H1299-EGFRmt cell model. In words: 3D-VM vasculature disruption, H1299-EGFRmt cell model. It is filed as cell-based. Here is the method:
(§6) The assessment of in vitro vasculogenic mimicry (VM) capabilities of cancer cells was conducted utilizing the Matrigel tube formation assay. Chamber slides (TruLive3D Dishes, Burker) were prepared by applying a 100 μl layer of growth factor-reduced Matrigel (Corning) and subsequently allowing for gel solidification over a 30-minute period at 37° C. Following solidification, a cell suspension prepared in culture media at a concentration of 1.25×10^5 cells per 150 μl was evenly distributed over the gel surface. This preparation was then incubated for an additional 30 minutes at 37° C. within a CO2 incubator. […]
as §3, §4

In data set [6] the test system is H1299-EGFRmt cell model. In words: 2D-VM networks inhibition assay via high-content imaging, H1299-EGFRmt. The class given is cell-based. Conditions: any concentration beyond 31.25 nM. On the procedure: as §5
Data set [7] concerns H1299-EGFRwt cell model. In words: 3D-VM vasculature disruption, H1299-EGFRwt cell model. It is filed as cell-based. Conditions: foslinanib 62.5 nM. On the procedure:
as §2, §3, §4

Data set [8] has as its system various tumor xenograft models. The settings on record: cited from earlier work.
In data set [9] the test system is H1650 lung cancer cell model. In words: 3D-VM vasculature disruption, H1650 lung cancer cell model (real-time LSFM, lumen quantification). The class given is cell-based. On the procedure: The assessment of in vitro vasculogenic mimicry (VM) capabilities of cancer cells was conducted utilizing the Matrigel tube formation assay. Chamber slides (TruLive3D Dishes, Burker) were prepared by applying a 100 μl layer of growth factor-reduced Matrigel (Corning) and subsequently allowing for gel solidification over a 30-minute period at 37° C. Following solidification, a cell suspension prepared in culture media at a concentration of 1.25×10^5 cells per 150 μl was evenly distributed over the gel surface. This preparation was then incubated for an additional 30 minutes at 37° C. within a CO2 incubator. After this initial incubation period, an overlay of 1× Matrigel mixed with culture medium was applied directly to the cells, so as to obtain a pre-cell model (10), and followed by further incubation at 37° C. for 5 to 24 hours so that a lung cancer cell model (100) was obtained for subsequent 3D-VM observation.
The quantification of tube or lumen formation of 3D-VM vasculature was conducted utilizing an analytical approach on at least eight distinct areas of interest (AOIs), among which three AOIs were specified as representative sections of images. The region of interest (ROI) indicates a delineated patent tube or hollow lumen within each tested cell. First, the AOI was identified and quantified. Following this, the mean ROI was calculated by aggregating the ROIs for all eight AOIs (area 1+ area 2+ . . . area 8) and dividing this sum by eight, thereby deriving an average area that reflects the typical dimensions of the regions analyzed in each individual lung cancer cell model. Finally, the standard average was ascertained by dividing the mean ROI by the mean total tube average. This ratio provides a standardized metric, enabling the effective comparison of anti-3D-VM vasculature efficiency across varying experimental setups or among different cell lines; the formula is as follows: […]
as §4

Data set [10] is described as follows: Cell viability (MTT assay), HCC827. It is filed as cell-based. Conditions: human, HCC827 cells; HCC827, 62.5 nM. On the procedure:
as §1

Data set [11] concerns H1299-EGFRwt cell model. In words: 2D-VM networks inhibition assay via high-content imaging, H1299-EGFRwt. The class given is cell-based. The settings on record: high concentration (beyond 31.25 nM). On the procedure:
as §5

The test system of a further data set is H1650 cells. In words: Cell viability (MTT assay), H1650. The settings on record: H1650 lung cancer cell model, various foslinanib concentrations. The class given is cell-based. Here is the method: as §1
Background: Tetrazolium dyes change colour on reduction, which living cells bring about.

Data set [12] concerns H1299 cell model. In words: Cell viability, H1299 cell model. It is filed as cell-based. The settings on record: H1299, high concentration (beyond 250 nM). On the procedure:
as §1

Data set [13] has as its system HCC827 lung cancer cell model. In words: 3D-VM vasculature disruption, HCC827 lung cancer cell model (real-time LSFM, lumen quantification). It is filed as cell-based. The settings on record: HCC827, 500 nM, 24-hour incubation. On the procedure: as §6, §3, §4

Procedure for LAMC2: (§7) Cells were seeded at a density of 2×10^6 cells in a 6 cm culture dish for protein sample preparation. […] After centrifugation, the cell lysate samples were boiled with 6X sample buffer for 10 minutes. The cell lysate protein samples were separated by SDS-PAGE and transferred to polyvinylidene difluoride (PVDF) membranes (Millipore). The membranes were then blocked with 5% skim milk (HIMEDIA) dissolved in Tris-buffered saline Tween (TBST) buffer for 1 hour, followed by three 10-minute washes with TBST. […] Subsequently, the membranes were incubated with the appropriate secondary antibodies for 1 hour at room temperature. Protein expressions were visualized using Western Lightning Plus ECL (PerkinElmer), detected by the iBright FL1000 imaging system, and analyzed using ImageJ software.
Procedure for phosphorylated EGFR: as §7

In the case of `C=CC(=O)Nc1cc(Nc2nccc(-c3cn(C)c4ccccc34)n2)c(OC)cc1N(C)CCN(C)C` [osimertinib], the cytotoxic effects entry in the data set on H1299-EGFRmt cell model [1] (H1299mt cell model, osimertinib) is on record as “cytotoxic effects”; with H1299-EGFRwt cell model [2] it was “cytotoxic effects”. In addition, the “levels of phosphorylated EGFR” value in the data set on phosphorylated EGFR is given as “markedly reduced”. For the same compound, the “3D-VM vasculature (quantitative analysis)” value in data set [3] (after osimertinib treatment) was “significantly disrupted”. The “formation of 3D-VM vasculature (3D imaging)” value in data set [3] (osimertinib) was “did not impact”.

The term viability denotes a read-out of living cells in per cent, often relative to untreated cells. A low value points to more harm to the cells. Take `COc1ccc2[nH]c(-c3cccc(F)c3)cc(=O)c2c1OP(=O)(O)O` [foslinanib]: the “2D total network area” value with H1299 cell model [4] is given as “less effective inhibition”; in the data set on H1299-EGFRmt cell model [6] it was “decreasing trend”. The figures for the “2D total network length” value in the data set with H1299 cell model [4] and in the data set on H1299-EGFRmt cell model [6] were “less effective inhibition” and “decreasing trend”, respectively. For the same compound, the cell viability entry is listed as “significant decrease” in the data set on H1299-EGFRmt cell model [1] (H1299-EGFRmt, 31.25 nM (range 7.8125 nM to 500 nM)) and “suppressed” in the data set with H1299 cell model [12]. The LAMC2 protein levels result with LAMC2 is “significant decrease”. The “disruption of 3D-VM vasculature (quantitative analysis)” value with H1299-EGFRmt cell model [5] is reported as “significant”. The “effect on 3D-VM vasculature” value in the data set on H1299-EGFRwt cell model [7] is recorded as “disruptive effect”. For the same compound, the anti-tumor efficacy entry in data set [8] is listed as “robust anti-tumor efficacy”. Besides, the “disruption of VM lumens” value in data set [9] (H1650, 62.5 nM) is listed as “disruption of VM lumens”. Also, in [9] (H1650, 250 nM and 500 nM), the “inhibition of 3D-VM vasculature” value is given as “significant inhibition”. The lumen area entry in [9] (H1650, 250 nM and 500 nM) is listed as “significantly reduced”; in [13], “significant reduction”. The same compound yielded a viability at 0.0625 µM in [10] of 70%. Besides, the “inhibitory effect on the formation of a 2D-VM network” value in the data set with H1299-EGFRwt cell model [11] is “rather insignificant”. In addition, the “cell toxicity against H1650 cells” value in the data set on H1650 cells is “no significant cell toxicity”.
